{"source": "ChEMBL document CHEMBL5385865", "about": "“Discovery and optimization of 2-(trifluoromethyl)benzimidazole derivatives as novel ferroptosis inducers in vitro and in vivo” (Eur J Med Chem, 2023)", "key": {"[1]": {"system": "HepG2", "test": "Induction of apoptosis in human HepG2 cells xenografted in BALB/c nude mouse at 15 to 30 mg/kg, ip administered every other day for 21 days by TUNEL staining based IHC analysis", "format": "functional, organism-based", "settings": "dose 15-30 mg/kg, time 21.0 day"}, "[2]": {"system": "HepG2", "test": "Inhibition of cell proliferation in human HepG2 cells xenografted in BALB/c nude mouse at 15 to 30 mg/kg, ip administered every other day for 21 days by Ki67 staining based IHC analysis", "format": "functional, organism-based", "settings": "dose 15-30 mg/kg, time 21.0 day"}, "[3]": {"system": "HT-1080", "test": "Induction of ferroptosis in human HT-1080 cells assessed as shrinkage of mitochondria at 5 uM incubated for 24 hrs by TEM analysis", "format": "functional, cell-based"}, "[4]": {"test": "Metabolic stability in […] rat microsomes assessed as half life at 1 uM in presence of NADPH by LC-MS analysis", "format": "ADME, Liver, Microsome"}, "[5]": {"test": "Metabolic stability in rat liver microsomes assessed as intrinsic clearance measured per mg protein at 1 uM in presence of NADPH by LC-MS analysis", "format": "ADME, Microsome", "settings": "read-out: CLH"}, "[6]": {"system": "HepG2", "test": "Antitumor activity against human HepG2 cells xenografted in BALB/c nude mouse assessed as tumor weight reduction administered intraperitoneally every other day for 21 days", "format": "functional", "settings": "dose 15-30 mg/kg, route ip, time 21.0 day"}, "[7]": {"test": "Toxicity in BALB/c nude mouse xenografted with human HepG2 cells assessed as body weight loss at 15 to 30 mg/kg, ip administered every other day for 21 days", "format": "organism-based", "settings": "in vivo, 504 h, dose 15-30 mg/kg, time 21 day"}, "[8]": {"system": "HT-1080", "test": "Induction of ferroptosis in human HT-1080 cells assessed as cell death at 10 uM incubated for 24 hrs in presence of Nec-1 by MTT assay", "format": "functional, cell-based"}, "[9]": {"system": "HT-1080", "test": "Induction of ferroptosis in human HT-1080 cells assessed as cell death incubated for 24 hrs by morphology based microscopy", "format": "functional", "settings": "dose 0.5-5 µM"}, "[10]": {"system": "HT-1080", "test": "Induction of ferroptosis in human HT-1080 cells assessed as cell death at 5 uM incubated for 24 hrs in presence of DFO by morphology based microscopy", "format": "functional"}, "[11]": {"system": "HT-1080", "test": "Induction of ferroptosis in human HT-1080 cells assessed as increase in lipid ROS accumulation at 5 uM incubated for 10 hrs by BODIPY-C11 probe based confocal laser scanning microscopy", "format": "functional, cell-based"}, "[12]": {"system": "HT-1080", "test": "Induction of ferroptosis in human HT-1080 cells assessed as increase in lipid ROS accumulation at 0.5 to 5 uM incubated for 10 hrs by flow cytometry", "format": "functional, cell-based", "settings": "dose 0.5-5 µM"}, "[13]": {"system": "HT-1080", "test": "Induction of ferroptosis in human HT-1080 cells assessed as increase in cytosolic ROS accumulation at 5 uM incubated for 10 hrs in presence of Fer-1 by H2DCFDA probe based flow cytometry", "format": "functional, cell-based"}, "[14]": {"system": "HT-1080", "test": "Induction of ferroptosis in human HT-1080 cells assessed as decrease in GSH level incubated for 12 hrs by DTNB method", "format": "functional, cell-based", "settings": "dose 0.5-5 µM"}, "[15]": {"system": "HT-1080", "test": "Induction of ferroptosis in human HT-1080 cells assessed as increase in SLC7A11 mRNA level incubated for 18 hrs by qPCR analysis", "format": "functional, cell-based", "settings": "dose 0.5-5 µM"}, "[16]": {"system": "HT-1080", "test": "Induction of ferroptosis in human HT-1080 cells assessed as cell death at 5 uM incubated for 24 hrs in presence of beta-mercaptoethanol by MTT assay", "format": "functional, cell-based"}, "[17]": {"target": "T1, Phospholipid hydroperoxide glutathione peroxidase GPX4 (Homo sapiens) (UniProt P36969)", "T1 sequence (whole entry)": "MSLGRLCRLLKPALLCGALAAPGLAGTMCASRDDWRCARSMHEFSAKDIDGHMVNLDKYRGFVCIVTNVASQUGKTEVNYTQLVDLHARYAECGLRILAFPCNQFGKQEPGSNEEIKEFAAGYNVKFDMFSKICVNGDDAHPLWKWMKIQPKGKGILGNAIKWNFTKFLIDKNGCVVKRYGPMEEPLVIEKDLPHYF", "test": "Inhibition of GPX4 in human HT-1080 cells at 10 to 40 uM incubated for 12 hrs", "format": "cell-based", "settings": "dose 10-40 µM"}, "[18]": {"system": "786-0", "test": "Lethality in human 786-0 cells assessed as inhibition of cell viability incubated for 24 hrs by MTT assay", "format": "functional, cell-based", "settings": "786-0, 24 h"}, "[19]": {"system": "MDA-MB-231", "test": "Lethality in human MDA-MB-231 cells assessed as inhibition of cell viability incubated for 24 hrs by MTT assay", "format": "functional, cell-based", "settings": "MDA-MB-231, 24 h"}, "[20]": {"system": "HeLa", "test": "Lethality in human HeLa cells assessed as inhibition of cell viability incubated for 24 hrs by MTT assay", "format": "functional, cell-based"}, "[21]": {"system": "DU-145", "test": "Lethality in human DU-145 cells assessed as inhibition of cell viability incubated for 24 hrs by MTT assay", "format": "functional, cell-based", "settings": "DU-145, 24 h"}, "[22]": {"system": "HeLa", "test": "Lethality in human HeLa cells assessed as decrease in cell viability at 10 uM incubated for 48 hrs by MTT assay", "format": "functional, cell-based"}, "[23]": {"system": "HepG2", "test": "Lethality in human HepG2 cells assessed as decrease in cell viability at 10 uM incubated for 48 hrs by MTT assay", "format": "functional, cell-based"}, "[24]": {"system": "A-375", "test": "Lethality in human A-375 cells assessed as decrease in cell viability at 10 uM incubated for 48 hrs in presence of Fer-1 by MTT assay", "format": "functional, cell-based"}, "[25]": {"system": "DU-145", "test": "Lethality in human DU-145 cells assessed as decrease in cell viability at 10 uM incubated for 48 hrs in presence of Fer-1 by MTT assay", "format": "functional, cell-based"}, "[26]": {"system": "786-0", "test": "Lethality in human 786-0 cells assessed as decrease in cell viability at 10 uM incubated for 48 hrs in presence of DFO by MTT assay", "format": "functional, cell-based"}, "[27]": {"system": "A-375", "test": "Lethality in human A-375 cells assessed as decrease in cell viability at 10 uM incubated for 48 hrs in presence of DFO by MTT assay", "format": "functional, cell-based"}, "[28]": {"test": "Toxicity in human HEK293T cells upto 20 uM incubated for 48 hrs by MTT assay", "format": "cell-based", "settings": "hek-293t"}, "[29]": {"test": "Toxicity in BALB/c nude mouse xenografted with human HepG2 cells assessed as effect on serum ALT level at 15 to 30 mg/kg, ip administered every other day for 21 days", "format": "organism-based", "settings": "in vivo, 504 h, dose 15-30 mg/kg, time 21 day"}, "[30]": {"test": "Toxicity in BALB/c nude mouse xenografted with human HepG2 cells assessed as effect on serum AST level at 15 to 30 mg/kg, ip administered every other day for 21 days", "format": "organism-based", "settings": "in vivo, 504 h, dose 15-30 mg/kg, time 21 day"}, "[31]": {"test": "Toxicity in BALB/c nude mouse xenografted with human HepG2 cells assessed as effect on serum ALP level at 15 to 30 mg/kg, ip administered every other day for 21 days", "format": "organism-based", "settings": "in vivo, 504 h, dose 15-30 mg/kg, time 21 day"}, "[32]": {"test": "Toxicity in BALB/c nude mouse xenografted with human HepG2 cells assessed as effect on serum TBIL level at 15 to 30 mg/kg, ip administered every other day for 21 days", "format": "organism-based", "settings": "in vivo, 504 h, dose 15-30 mg/kg, time 21 day"}, "[33]": {"test": "Toxicity in BALB/c nude mouse xenografted with human HepG2 cells assessed as effect on serum CK level at 15 to 30 mg/kg, ip administered every other day for 21 days", "format": "organism-based", "settings": "in vivo, 504 h, dose 15-30 mg/kg, time 21 day"}, "[34]": {"test": "Toxicity in BALB/c nude mouse xenografted with human HepG2 cells assessed as histological change in heart at 15 to 30 mg/kg, ip administered every other day for 21 days by H and E staining based analysis", "format": "organism-based", "settings": "in vivo, 504 h, dose 15-30 mg/kg, time 21 day"}, "[35]": {"test": "Toxicity in BALB/c nude mouse xenografted with human HepG2 cells assessed as histological change in liver at 15 to 30 mg/kg, ip administered every other day for 21 days by H and E staining based analysis", "format": "organism-based", "settings": "in vivo, 504 h, dose 15-30 mg/kg, time 21 day"}}, "note": "The source made the active and inactive calls. No cut-off for these calls is given here."}
{"smiles": "CN(C)S(=O)(=O)c1ccc(N2CCC(Cn3c(C(F)(F)F)nc4ccccc43)CC2)cc1", "values": [{"measurement": "Activity", "setting": "[1]", "value": "inactive"}, {"measurement": "inhibition", "setting": "[2]", "value": "Active"}, {"measurement": "Activity", "setting": "[3]", "value": "Active"}, {"measurement": "half-life at 1 µM", "setting": "[4]", "value": 10.4, "unit": "min"}, {"measurement": "microsomal CLint at 1 µM", "setting": "[5]", "value": 133, "unit": "µL/min/mg"}, {"measurement": "Activity", "setting": "[6]", "value": "Dose-Dependent Effect"}, {"measurement": "Activity", "setting": "[7]", "value": "Non-Toxic"}, {"measurement": "Activity", "setting": "[8]", "value": "Active"}, {"measurement": "Activity", "setting": "[9]", "value": "Dose-Dependent Effect"}, {"measurement": "Activity", "setting": "[10]", "value": "inactive"}, {"measurement": "Activity", "setting": "[11]", "value": "Active"}, {"measurement": "Activity", "setting": "[12]", "value": "Active"}, {"measurement": "Activity", "setting": "[13]", "value": "inactive"}, {"measurement": "Activity", "setting": "[14]", "value": "Dose-Dependent Effect"}, {"measurement": "Activity", "setting": "[15]", "value": "Dose-Dependent Effect"}, {"measurement": "Activity", "setting": "[16]", "value": "inactive"}, {"measurement": "inhibition", "setting": "[17]", "value": "inactive"}, {"measurement": "IC50", "setting": "[18]", "value": 700, "unit": "nM"}, {"measurement": "IC50", "setting": "[19]", "value": 4340, "unit": "nM"}, {"measurement": "IC50", "setting": "[20]", "value": 1910, "unit": "nM"}, {"measurement": "IC50", "setting": "[21]", "value": 1640, "unit": "nM"}, {"measurement": "Activity", "setting": "[22]", "value": "Active"}, {"measurement": "Activity", "setting": "[23]", "value": "Active"}, {"measurement": "Activity", "setting": "[24]", "value": "inactive"}, {"measurement": "Activity", "setting": "[25]", "value": "inactive"}, {"measurement": "Activity", "setting": "[26]", "value": "inactive"}, {"measurement": "Activity", "setting": "[27]", "value": "inactive"}, {"measurement": "Activity", "setting": "[28]", "value": "Toxic"}, {"measurement": "Activity", "setting": "[29]", "value": "Non-Toxic"}, {"measurement": "Activity", "setting": "[30]", "value": "Non-Toxic"}, {"measurement": "Activity", "setting": "[31]", "value": "Non-Toxic"}, {"measurement": "Activity", "setting": "[32]", "value": "Non-Toxic"}, {"measurement": "Activity", "setting": "[33]", "value": "Non-Toxic"}, {"measurement": "Activity", "setting": "[34]", "value": "Non-Toxic"}, {"measurement": "Activity", "setting": "[35]", "value": "Non-Toxic"}]}
